From US20240189278A1, “NOVEL COMPOUNDS AND METHODS FOR INCREASING KLOTHO GENE EXPRESSION” (Klotho Therapeutics, Inc., priority 2017, published 2024) come the findings set out here.

One test concerns MMP2. The experiment in a line: MMP2 activity by zymogram PAGE, aortas of aged mice. The following applies: zymography. It counts as in vivo, mouse. As to the method: (§1) Animal study protocols. This example was performed according to the guide lines of the National Institute of Health on the care and use of laboratory animals and approved by the institutional Animal Care and Use Committee of University of Oklahoma Health Science Center. AU mice were housed in cages at room temperature (2S±PC) and were provided with Purina laboratory chow No 5001) and tap Water and lithium. 6 adult mice (12 months) and 20 old mice (24-26 months) mice were next in this study. The old (aged) mice were randomly divided into three subgroups and each group had 6 or 7 mice. One subgroup received compound H (10 mg/kg/day1, IP, Enamine LLC, Monmouth Jct., NJ) and one group received an equal volume of DMSO (dimethyl sulfoxide, 5%) and served as a control. The third group received no treatment Blood pressure was measured before and after treatment with the active agent at 1 week and 2 week. Pulse wave velocity (PWV) was measured after 2 weeks treatment with active agent all animals were sacrificed and perfused transcardially with PBS under deep anesthesia (ketamine xylazine, 90/10 mg, IP). […]
(§2) Measurements for MMP2 and MMP9 Activity. MMP2 and MMP9 activity were measured by Zymogram PAGE (Bio˜-Rad). Briefly Lysates from thoracic aorta were quantified using BCA assay (Pierce) and prepared under non-reducing, non-denaturing conditions. […]

The test system of another test is DNA demethylase. The experiment in a line: DNA demethylase activity in aged mice. The format is in vivo, mouse. The settings on record: 2 weeks treatment. Here is the method:
as §1, with “One subgroup received compound H (10 mg/kg/day1, IP, Enamine LLC, Monmouth Jct., NJ) and one group received an equal volume of DMSO (dimethyl sulfoxide, 5%) and served as a control.” left out
Measurement of DNA Demethylase and DNA Methylation force Activity. The DNA demethylase and DNA methyltransferase activity was measured by using DNA demethylase activity qualification kit (Abeam˜Cambridge, MA) and methyltransferase coloritnetxic assay kit (Cayman Chemical Company, Ann Arbor, Michigan). […] The absorbance was read at […] for DNA methylene activity assay and 510 nm for DNA methyltransferase activity using BioTeck Multi-Mole Microplate Readers.

The subject of another test is eNOS. The test can be described thus: Western blot of eNOS and p-eNOS, aortas of aged mice. It counts as in vivo, mouse. As to the method:
(§3) Animal study protocols. This example was performed according to the guide lines of the National Institute of Health on the care and use of laboratory animals and approved by the institutional Animal Care and Use Committee of University of Oklahoma Health Science Center. AU mice were housed in cages at room temperature (2S±PC) and were provided with Purina laboratory chow No 5001) and tap Water and lithium. 6 adult mice (12 months) and 20 old mice (24-26 months) mice were next in this study. The old (aged) mice were randomly divided into three subgroups and each group had 6 or 7 mice. One subgroup received compound H (10 mg/kg/day1, IP, Enamine LLC, Monmouth Jct., NJ) and one group received an equal volume of DMSO (dimethyl sulfoxide, 5%) and served as a control. The third group received no treatment Blood pressure was measured before and after treatment with the active agent at 1 week and 2 week. Pulse wave velocity (PWV) was measured after 2 weeks treatment with active agent all animals were sacrificed and perfused transcardially with PBS under deep anesthesia (ketamine xylazine, 90/10 mg, IP). The aortas were then quickly removed, washed and cut into pieces for subsequent analyses.
(§4) Western Blot Analysis: Protein samples from the thoracic aorta were prepared in Lysis buffer as described previously. The proteins ([…] were resolved by SOS-PAGE and transferred to a nitrocellulose membrane (Bio-Rad). The membrane was then incubated overnight (4° C.) with a primary antibody against collagen-1-elastin. M1′v1P2; MMP9, ALP (Abeam1 1:1000), TGF-1, TGF˜N3 (Santa Cmz, 1:100). RUX2, or aNTulmliu (Cell Signaling. 1:1000). Goat autimouse or goat anti rabbit horseradish peroxidase (1:2000 . . . 1:5,000; Santa Cruz Biotechnology) was used as a secondary antibody find incubated for 1 hour at room temperature. Specific proteins were detected by chemiluminescent methods using Amersham™ western blotting detection reagents (GE Healthcare, UK). Protein abundance on western blots was quantified densitometry using Image lab software (Bio-Rad, Hercules, CA).

Another test has as its system ALP. The test can be described thus: Western blot of ALP, aortas of aged mice. It counts as in vivo, mouse. Here is the method: as §1
(§5) Western Blot Analysis: Protein samples from the thoracic aorta were prepared in Lysis buffer as described previously. […] Protein abundance on western blots was quantified densitometry using Image lab software (Bio-Rad, Hercules, CA).

The next test has as its system full-length Klotho. The experiment in a line: Western blot of full-length Klotho in kidney of aged mice. It counts as in vivo, mouse. The settings on record: kidney of 24-26 month-old mice. A general note: In western blotting, separated proteins are transferred to a membrane and probed.
The test system of another test is Klotho mRNA. The experiment in a line: RT-PCR of Klotho mRNA in kidney of aged mice. The format is in vivo, mouse. As to the method: as §3
Reverse transcription-PCR (RT-PCR): Total RNA was extracted using a Direct˜zol T!vl RNA Miniprep kit (Zymo Research, Irvine CA) from kidney of adult and aged mice. […]

A further test deals with MMP9. The test can be described thus: MMP9 activity by zymogram PAGE, aortas of aged mice. It counts as in vivo, mouse. The following applies: zymography. Here is the method:
as §1, §2

The test system of test [1] is mouse vascular aortic smooth muscle cells (MOVAS). The test can be described thus: Western blot of treated MOVAS cells. It counts as cell-based. The settings on record: 10 μM active agent, 16 h. As to the method:
After cells confluent, the media were switched to DMEM with or without 2° A1 serum, and the cells were then treated with 10 μM active agent or 5 nM secreted Klotho for another 16 h then harvested for western blot analysis.
as §4

In the next test the test system is SIRT1. The test can be described thus: Western blot of SIRT1 and acetyl p53, aortas of aged mice. The format is in vivo, mouse. As to the method:
as §1, §5

Another test deals with AMPK. The experiment in a line: Western blot of AMPK and p-AMPK, aortas of aged mice. It counts as in vivo, mouse. Here is the method:
as §3, §4

For the compound `O=C(Nc1ccccc1Cl)c1c[nH]c2ccccc12` [active agent, N-(2-chlorophenyl)-Ul-indde-3-carboxamide], the MMP2 activity result with MMP2 is reported as “decreased”. For the same compound, the DNA demethylase activity entry in the test on DNA demethylase was “increased”. The eNOS activity result in the test with eNOS (aortas of aged mice) was “increased”. Further, in the test with eNOS (old mice, western blot), the eNOS expression result was “increased” and the p-eNOS expression entry was “increased”. Moreover, the ALP expression entry in the test with ALP was “decreased”. In the test on full-length Klotho, the “Full-length Klotho expression” value is “did not affect”. Moreover, the “Secreted Klotho mRNA expression” value with Klotho mRNA is on record as “increased”. For the same compound, the MMP9 activity entry in the test with MMP9 is on record as “decreased”. Moreover, in test [1] (Klotho free medium (KL(−))), the MMP2 expression result is “did not affect”, the MMP9 expression result was “did not affect”, the TGFβ1 expression entry is reported as “did not affect” and the TGFβ3 expression result is “did not affect”. In addition, in [1] (regular medium), the MMP2 expression result is on record as “did not change”, the MMP9 expression result was “did not change”, the TGFβ1 expression result is on record as “did not change” and the TGFβ3 expression result is “did not change”. Further, in the test with SIRT1 (aorta of old mice), the “SirT1 activity (deacetylation of p53)” value is listed as “increased”. Also, the SIRT1 expression result in the test on SIRT1 (aortas of aged mice) is “did not affect”. In addition, the AMPK activity result in the test with AMPK (aortas of aged mice) was “increased”. Further, in the test on AMPK (old mice, western blot), the AMPK expression entry was “increased” and the p-AMPK expression entry is “increased”.
